Our source for the percent degradation of TPM3-TRKA protein and IC50 values is US12410171B2, “Tropomyosin receptor kinase (TRK) degradation compounds and methods of use” (Cullgen (Shanghai), Inc., priority 2020, dated 2025).

Like-named read-outs stand apart in the source and are kept apart here. Where only a bound is given, the exact number is not on record here.

The target in one experiment is T1, TPM3-TRKA fusion protein (Homo sapiens, UniProt P04629).
T1 construct: The resulted chimeric proteins always retain the kinase domain of TRK proteins; TPM3 (fusion partner, N-terminal part of tropomyosin alpha-3, P06753); endogenous in cells; host or cells: KM12 colon cancer cells; the other entry of the earlier key: TPM3 (P06753, Tropomyosin alpha-3 chain)
The experiment in a line: TPM3-TRKA fusion protein levels in KM12 cells (Western blot). Format: cell-based. The conditions noted are these: read-out: Degradation (at 10 nM). A digest of the protocol: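 TPM3-TRKA levels were assessed by Western blot with chemiluminescent detection and band densitometry, after SDS-PAGE of BCA-normalized RIPA lysates. Before lysis, KM12 cells received DMSO, compounds or matched control compounds at concentrations including 0.1, 1, 10 and 100 nM and 0.4–30 nM. Exposures lasted 4 h, 8–16 h or 16 h.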
On the technique in general: In western blotting, separated proteins are transferred to a membrane and probed.

The next experiment has as its system KM12 cells. The experiment in a line: KM12 cell viability (CellTiter-Glo). In kind it is cell-based. To be noted: Homo sapiens. A digest of the protocol:
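Three-day exposure of KM12 cells (5000/well, RPMI 1640 with 10% FBS, 37 °C, 5% CO2) to compound dilution series, 3-fold over 8 or 11 points (top 1000 nM in the 8-point format) or 2-fold over 12. CellTiter-Glo readout, with IC50 fitted by nonlinear least-squares regression.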
For orientation: ATP-based viability assays read luminescence as a measure of living cells.

[1] abbreviates: 16 h, TPM3-TRKA degradation in KM12 cells at 10 nM compound, category of percentage degradation.
Where [2] appears, read: 72 h, KM12 cell viability, CellTiter-Glo, three days treatment, read-out: IC50.

T1 sequence (P04629 with tags, fused parts or gaps): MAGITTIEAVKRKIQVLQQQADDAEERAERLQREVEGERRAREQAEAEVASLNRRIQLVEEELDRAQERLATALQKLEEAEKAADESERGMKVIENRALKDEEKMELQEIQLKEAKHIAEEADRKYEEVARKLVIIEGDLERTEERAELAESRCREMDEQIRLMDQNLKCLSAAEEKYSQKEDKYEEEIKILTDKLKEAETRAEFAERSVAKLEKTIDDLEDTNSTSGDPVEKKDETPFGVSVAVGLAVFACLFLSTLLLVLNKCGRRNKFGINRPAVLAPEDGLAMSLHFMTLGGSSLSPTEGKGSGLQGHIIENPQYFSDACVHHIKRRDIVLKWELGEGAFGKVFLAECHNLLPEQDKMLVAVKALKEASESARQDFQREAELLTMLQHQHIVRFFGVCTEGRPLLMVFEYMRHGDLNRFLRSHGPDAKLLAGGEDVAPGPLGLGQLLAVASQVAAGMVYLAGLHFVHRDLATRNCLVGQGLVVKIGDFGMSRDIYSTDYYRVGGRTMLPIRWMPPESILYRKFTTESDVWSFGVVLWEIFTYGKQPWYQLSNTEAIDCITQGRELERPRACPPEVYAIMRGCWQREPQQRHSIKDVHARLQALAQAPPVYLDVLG

With `Cn1c(=O)n(C2CCC(=O)NC2=O)c2cccc(NCCN3CCN(c4ccc(C(=O)Nc5n[nH]c6ccc(Cc7cc(F)cc(F)c7)cc56)c(NC5CCOCC5)c4)CC3)c21` (centres unmarked) [TR-325, N-(5-(3,5-difluorobenzyl)-1H-indazol-3-yl)-4˜ (4-(2-((1-(2,6-dioxopiperidin-3-yl)-3-methyl-2-oxo-2,3-dihydro-1H-benzo[d]imidazol-4-yl)amino)ethyl)piperazin-1-yl)-2-((tetrahydro-2H-pyran-4-yl)amino)benzamide], the percent degradation of TPM3-TRKA protein at 0.01 µM at TPM3-TRKA fusion protein (KM12, 16 h) is more than 80%. Moreover, it took 0.013 µM to reach half-maximal inhibition in the experiment with KM12 cells (KM12, 72 h) (IC50).

On to `O=C1CCC(n2nnc3cccc(N4CC(CN5CCN(c6ccc(C(=O)Nc7n[nH]c8ccc(Cc9cc(F)cc(F)c9)cc78)c(NC7CCOCC7)c6)CC5)C4)c3c2=O)C(=O)N1` (centres unmarked) [TR-326, N-(5-(3,5-Difluorobenzyl)-1H-indazol-3-yl)-4-(4-((1˜ (3-(2,6-dioxopiperidin-3-yl)-4-oxo-3,4-dihydrobenzo[d][1,2,3]triazin-5-yl)azetidin-3-yl)methyl)piperazin-1-yl)-2-((tetrahydro-2H-pyran-4-yl)amino)benzamide], for which, on TPM3-TRKA fusion protein (setting [1]), the percent degradation of TPM3-TRKA protein at 0.01 µM lay within 50 to 80%. Further, the IC50 (as a rule, the concentration that gives 50% inhibition) with KM12 cells (setting [2]) was found to be 0.014 µM.

On to `O=C1CCC(n2nnc3cccc(N4CC(CCN5CCN(c6ccc(C(=O)Nc7n[nH]c8ccc(Cc9cc(F)cc(F)c9)cc78)c(NC7CCOCC7)c6)CC5)C4)c3c2=O)C(=O)N1` (centres unmarked) [TR-327, N-(5-(3,5-Difluorobenzyl)-1H-indazol-3-yl)-4-(4-(2-(1-(3-(2,6-dioxopiperidin-3-yl)-4-oxo-3,4-dihydrobenzo[d][1,2,3]triazin-5-yl)azetidin-3-yl)ethyl)piperazin-1-yl)-2-((tetrahydro-2/-pyran-4-yl)amino)benzamide], for which, on TPM3-TRKA fusion protein (setting [1]), the percent degradation of TPM3-TRKA protein at 0.01 µM was in the range of 50 to 80%. Further, the concentration for half-maximal inhibition (IC50) in the experiment with KM12 cells (setting [2]) stood at 0.0133 µM.

Regarding `O=C1CCC(N2C(=O)c3ccc(C4CN(CC5CCN(c6ccc(C(=O)Nc7n[nH]c8ccc(Cc9cc(F)cc(F)c9)cc78)c(NC7CCOCC7)c6)CC5)C4)cc3C2=O)C(=O)N1` (centres unmarked) [TR-328, N-(5-(3,5-Difluorobenzyl)-1H-indazol-3-yl)-4-(4-((3˜ (2-(2,6-dioxopiperidin-3-yl)-1,3-dioxoisoindolin-5-yl)azetidin-1-yl)methyl)piperidin-1-yl)-2-((tetrahydro-2/7-pyran-4-yl)amino)benzamide], the percent degradation of TPM3-TRKA protein at 0.01 µM at TPM3-TRKA fusion protein (setting [1]) was more than 80%. For the same compound, the IC50 in the experiment on KM12 cells (setting [2]) amounted to 0.0359 µM.

Regarding `O=C1CCC(N2Cc3cc(C4CN(CC5CCN(c6ccc(C(=O)Nc7n[nH]c8ccc(Cc9cc(F)cc(F)c9)cc78)c(NC7CCOCC7)c6)CC5)C4)ccc3C2=O)C(=O)N1` (centres unmarked) [TR-330, N-(5-(3,5-Difluorobenzyl)-1H-indazol-3-yl)-4-(4-((3-(2-(2,6-dioxopiperidin-3-yl)-1-oxoisoindolin-5-yl)azetidin-1-yl)methyl)piperidin-1-yl)-2-((tetrahydro-2H-pyran-4-yl)amino)benzamide], at TPM3-TRKA fusion protein (setting [1]), the percent degradation of TPM3-TRKA protein at 0.01 µM is more than 80%. Also, the IC50 with KM12 cells (setting [2]) is 0.0285 µM.

With `O=C1CCC(N2Cc3cc(N4CC(N5CCN(c6cccc(-c7cnc8ccc(N9CCC[C@@H]9c9cccc(F)c9)nn78)n6)CC5)C4)ccc3C2=O)C(=O)N1` (stereo partly drawn) [TR-331, 3-(5-(3-(4-(6-(6-((R)-2-(3-fluorophenyl)pyrrolidin-1-yl)imidazo[1,2-b]pyridazin-3-yl)pyridin-2-yl)piperazin-1-yl)azetidin-1-yl)-1-oxoisoindolin-2-yl)piperidine-2,6-dione], at TPM3-TRKA fusion protein (setting [1]), the percent degradation of TPM3-TRKA protein at 0.01 µM was more than 80%. Besides, the IC50 in the experiment on KM12 cells (setting [2]) worked out at 0.0016 µM.

In the case of `O=C1CCC(N2Cc3cc(N4CC(N5CCN(c6ccc(C(=O)Nc7n[nH]c8ccc(Cc9cc(F)cc(F)c9)cc78)c(NC7CCOCC7)c6)CC5)C4)ccc3C2=O)C(=O)N1` (centres unmarked) [TR-332, N-(5-(3,5-difluorobenzyl)-1H-indazol-3-yl)-4-(4-(1-(2-(2,6-dioxopiperidin-3-yl)-1-oxoisoindolin-5-yl)azetidin-3-yl)piperazin-1-yl)-2-((tetrahydro-2H-pyran-4-yl)amino)benzamide], the percent degradation of TPM3-TRKA protein at 0.01 µM on TPM3-TRKA fusion protein (setting [1]) was more than 80%. In addition, the IC50 in the experiment on KM12 cells (setting [2]) was found to be 0.0017 µM.

Regarding `Cc1nc2cccc(N3CC(CN4CCN(c5ccc(C(=O)Nc6n[nH]c7ccc(Cc8cc(F)cc(F)c8)cc67)c(NC6CCOCC6)c5)CC4)C3)c2c(=O)n1C1CCC(=O)NC1=O` (centres unmarked) [TR-333, N-(5-(3,5˜Difluorobenzyl)-1H-indazol-3-yl)-4-(4-((1-(3-(2,6-dioxopiperidin-3-yl)-2-methyl-4-oxo-3,4-dihydroquinazolin-5-yl)azetidin-3-yl)methyl)piperazin-1-yl)-2-((tetrahydro-2H-pyran-4-yl)amino)benzamide], on TPM3-TRKA fusion protein (setting [1]), the percent degradation of TPM3-TRKA protein at 0.01 µM fell in the range of 50 to 80%. For the same compound, the IC50 with KM12 cells (setting [2]) is 0.0105 µM.

For `Cc1nc2cccc(N3CC(CCN4CCN(c5ccc(C(=O)Nc6n[nH]c7ccc(Cc8cc(F)cc(F)c8)cc67)c(NC6CCOCC6)c5)CC4)C3)c2c(=O)n1C1CCC(=O)NC1=O` (centres unmarked) [TR-334, N-(5-(3,5-Difluorobenzyl)-1H-indazol-3-yl)-4-(4-(2-(1-(3-(2,6-dioxopiperidin-3-yl)-2-methyl-4-oxo-3,4-dihydroquinazolin-5-yl)azetidin-3-yl)ethyl)piperazin-1-yl)-2-((tetrahydro-2/-pyran-4-yl)amino)benzamide], the percent degradation of TPM3-TRKA protein at 0.01 µM at TPM3-TRKA fusion protein (setting [1]) is 50 to 80%. Further, the IC50 in the experiment with KM12 cells (setting [2]) came out at 0.0246 µM.

As to `O=C1CCC(N2Cc3ccc(N4CC(N5CCN(c6cccc(-c7cnc8ccc(N9CCC[C@@H]9c9cccc(F)c9)nn78)n6)CC5)C4)cc3C2=O)C(=O)N1` (stereo partly drawn) [TR-335, 3-(6-(3-(4-(6-(6-((R)-2-(3-fluorophenyl)pyrrolidin-1-yl)imidazo[1,2-b]pyridazin-3-yl)pyridin-2-yl)piperazin-1-yl)azetidin-1-yl)-1-oxoisoindolin-2-yl)piperidine-2,6-dione], the percent degradation of TPM3-TRKA protein at 0.01 µM on TPM3-TRKA fusion protein (setting [1]) fell in the range of 50 to 80%. Moreover, the IC50 in the experiment with KM12 cells (setting [2]) was 0.0083 µM.

Turning to `O=C1CCC(N2Cc3ccc(N4CC(N5CCN(c6ccc(C(=O)Nc7n[nH]c8ccc(Cc9cc(F)cc(F)c9)cc78)c(NC7CCOCC7)c6)CC5)C4)cc3C2=O)C(=O)N1` (stereo not drawn) [TR-336, N—(S-(3,5-difluorobenzyl)-1H-indazol-3-yl)-4-(4-(1-(2-(2,6-dioxopiperidin-3-yl)-3-oxoisoindolin-5-yl)azetidin-3-yl)piperazin-1-yl)-2-((tetrahydro-2H-pyran-4-yl)amino)benzamide], the percent degradation of TPM3-TRKA protein at 0.01 µM on TPM3-TRKA fusion protein (setting [1]) is more than 80%. The IC50 in the experiment on KM12 cells (setting [2]) came out at 0.0032 µM.

Regarding `O=C1CCC(N2C(=O)c3ccc(N4CC(NC5CCN(c6ccc(C(=O)Nc7n[nH]c8ccc(Cc9cc(F)cc(F)c9)cc78)c(NC7CCOCC7)c6)CC5)C4)cc3C2=O)C(=O)N1` (centres unmarked) [TR-337, N-(5-(3,5-difluorobenzyl)-1H-indazol-3-yl)-4-(4-((1-(2-(2,6-dioxopiperidin-3-yl)-1,3-dioxoisoindolin-5-yl)azetidin-3-yl)amino)piperidin-1-yl)-2-((tetrahydro-2H-pyran-4-yl)amino)benzamide], at TPM3-TRKA fusion protein (setting [1]), the percent degradation of TPM3-TRKA protein at 0.01 µM was more than 80%. Moreover, the IC50 in the experiment with KM12 cells (setting [2]) is 0.0055 µM.

Turning to `O=C1CCC(N2Cc3cc(C4CN(C5CCN(c6ccc(C(=O)Nc7n[nH]c8ccc(Cc9cc(F)cc(F)c9)cc78)c(NC7CCOCC7)c6)CC5)C4)ccc3C2=O)C(=O)N1` (centres unmarked) [TR-338, N-(5-(3,5-difluorobenzyl)-1H-indazol-3-yl)-4-(4-(3-(2-(2,6-dioxopiperidin-3-yl)-1-oxoisoindolin-5-yl)azetidin-1-yl)piperidin-1-yl)-2-((tetrahydro-2H-pyran-4-yl)amino)benzamide], the percent degradation of TPM3-TRKA protein at 0.01 µM at TPM3-TRKA fusion protein (KM12, 16 h) is more than 80%. Besides, the IC50 in the experiment on KM12 cells (setting [2]) is 0.0013 µM.
